Experimental data: patent publication US20120184744A1, “CRYSTALLINE HYDROCHLORIDE SALTS OF C-MET KINASE INHIBITORS” (priority 2009, published 2012)
Structures can show the parent of a compound that is named as a salt. Blank lines part the entries; values can stand above or below the compound they belong to.

What was measured:
Type in all cases: physicochemical
[1] = Crystal form conversion on exposure to relative humidity; settings: room temperature
From the text: (§1) It rehydrates and converts back to the mono-HCl salt hydrate when exposed to higher than 75% relative humidity at room temperature. The mono-HCl salt anhydrate Form II can also convert to crystalline mono-HCl salt anhydrate Form I when slurried in Acetone:H2O co-solvent or other co-solvent systems with water activity below 0.57-0.60.
The 1.6-HCl salt anhydrate of Compound A is further characterized by reflections corresponding to d-spacings of 5.03, 4.30, and 4.14 angstroms. The 1.6-HCl salt anhydrate of Compound A is even further characterized by reflections corresponding to d-spacings of 3.93, 3.63, and 3.50 angstroms. The 1.6-HCl salt anhydrate converts to the 1.6-HCl salt hydrate upon exposure to 10-95% relative humidity at room temperature.

[2] = Solubility in 14.6 wt % IPA in DMF; settings: organic solvent or mixture
Protocol: To prepare the mono-HCl salt anhydrate Form I of Compound A, dissolve 1.00 g of Compound A freebase monohydrate in 7.0 mL (6.65 g) DMF at 55° C. Next, charge 0.05 eq of HCl. Then, charge 0.25 wt % media-milled seed ([…] of API). The solubility of Compound A HCl seed in 14.6 wt % IPA in DMF is <2 mg/mL. Age seed bed for 1 hr. Next, charge 0.92 eq of HCl over 8 hrs (linear charge rate) holding batch at 55. No dispersion is required. Total HCl charge is 0.97 eq. Cool the batch from 55° C. to 22° C. over 1 hr. Hold batch at 22° C. for one hour, then filter.

[3] = Physical stability of the solid on storage under controlled temperature/relative humidity; settings: for physical stability after storage: 5 months
[4] = Slurry experiment in organic solvent:H2O co-solvent (transition water activity, form conversion)
Protocol: This transition water activity was determined based on slurry experiment in Acetone:H2O, DMF:H2O and THF:H2O co-solvent. […] Crystalline mono-HCl salt hydrate dehydrates and converts to mono-HCl salt anhydrate Form II when exposed to low relative humidity or heated at high temperature.
as §1

relative humidity at which it converts to the 1.6-HCl salt hydrate [1]: 10-95%
SMILES: Cn1cc(-c2cnc3ccc4ccc(CS(=O)(=O)NCc5ccccn5)cc4c(=O)c3c2)cn1 [1.6-HCl salt anhydrate]

solubility [2]: < 2000 µg/mL
SMILES: Cn1cc(-c2cnc3ccc4ccc(CS(=O)(=O)NCc5ccccn5)cc4c(=O)c3c2)cn1 [Compound A HCl seed]

physical stability after storage ([3]; 40° C./75% relative humidity): physically stable
physical stability after storage ([3]; room temperature/53% relative humidity): physically stable
physical stability after storage ([3]; room temperature/85% relative humidity): physically stable
solid conversion to the mono-HCl salt hydrate ([3]; solid state, on storage): has not been observed
SMILES: Cn1cc(-c2cnc3ccc4ccc(CS(=O)(=O)NCc5ccccn5)cc4c(=O)c3c2)cn1 [Form I]

relative humidity at which it rehydrates and converts back to the mono-HCl salt hydrate [1]: higher than 75%
water activity at which it converts to mono-HCl salt anhydrate Form I ([4]; slurried in Acetone:H2O co-solvent or other co-solvent systems): 0.57-0.60
SMILES: Cn1cc(-c2cnc3ccc4ccc(CS(=O)(=O)NCc5ccccn5)cc4c(=O)c3c2)cn1 [mono-HCl salt anhydrate Form II]

transition water activity above which the mono-HCl salt hydrate is thermodynamically more stable than mono-HCl salt anhydrate Form I ([4]; room temperature or 40° C., slurry in Acetone:H2O, DMF:H2O and THF:H2O co-solvent): 0.57-0.60
SMILES: Cn1cc(-c2cnc3ccc4ccc(CS(=O)(=O)NCc5ccccn5)cc4c(=O)c3c2)cn1 [mono-HCl salt hydrate]
